Reference: PubChem BioAssay (NCI)
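Interpolation was linear, between the two tested concentrations surrounding the appropriate level; five concentrations were tested over 48 hours in 96-well plates. GI50 = concentration required for 50% inhibition of growth. TGI is the concentration that stops growth completely.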

Assays:
Test in all cases: NCI-60 cell line screen, 48 h
A498 renal = test system: A498 renal
CCRF-CEM leukemia = test system: CCRF-CEM leukemia
M14 melanoma = test system: M14 melanoma
NCI-H23 lung = test system: NCI-H23 lung
SF-539 CNS = test system: SF-539 CNS
SK-OV-3 ovarian = test system: SK-OV-3 ovarian
SF-295 CNS = test system: SF-295 CNS
SNB-75 CNS = test system: SNB-75 CNS
SK-MEL-2 melanoma = test system: SK-MEL-2 melanoma
SR leukemia = test system: SR leukemia

Row | Compound | GI50 (A498 renal) | TGI (A498 renal) | GI50 (CCRF-CEM leukemia) | TGI (CCRF-CEM leukemia) | GI50 (M14 melanoma) | TGI (M14 melanoma) | GI50 (NCI-H23 lung) | TGI (NCI-H23 lung) | GI50 (SF-539 CNS) | TGI (SF-539 CNS) | GI50 (SK-OV-3 ovarian) | TGI (SK-OV-3 ovarian) | GI50 (SF-295 CNS) | TGI (SF-295 CNS) | GI50 (SNB-75 CNS) | TGI (SNB-75 CNS) | GI50 (SK-MEL-2 melanoma) | TGI (SK-MEL-2 melanoma) | TGI (SR leukemia) | GI50 (SR leukemia)
1 | O=C(Nc1ccncc1)C(=O)c1cn(S(=O)(=O)c2ccc(Br)cc2)c2ccccc12 | 3.17 µM | > 100 µM | 7.67 µM | > 100 µM | 5.74 µM | > 100 µM | 4.74 µM | > 100 µM | 8.03 µM | > 100 µM | 19.9 µM | > 100 µM | 2.26 µM | > 100 µM | 4 µM | 41.7 µM | 32 µM | > 100 µM | – | –
2 | CC1=COC(=O)c2ccccc2N1 | – | – | – | > 100 µM | – | > 100 µM | – | > 100 µM | – | > 100 µM | – | > 100 µM | – | > 100 µM | – | > 100 µM | – | > 100 µM | > 100 µM | –
3 | COc1cc2c3c(n(C)c(=O)c2cc1OC)-c1cc2c(cc1/C3=C\CCCCN)OCO2 | 9.53 µM | 22.6 µM | – | – | 5.55 µM | 19.6 µM | 3.84 µM | 15.3 µM | 2.83 µM | 6.23 µM | 17.1 µM | 46.7 µM | 3.56 µM | 15.2 µM | 3.54 µM | 7.12 µM | 5.71 µM | 24.1 µM | > 100 µM | 3.58 µM
4 | N#C/C(=C\c1c(-c2ccccc2)[nH]c2ccccc12)C(=O)c1ccc(Cl)cc1 | 2.82 µM | 14.7 µM | 2.48 µM | > 100 µM | 0.725 µM | > 100 µM | 3.71 µM | 38.5 µM | 0.715 µM | 3.99 µM | 3.02 µM | 14.8 µM | 2.18 µM | 16.4 µM | 1.43 µM | 8.7 µM | 7.09 µM | > 39.3 µM | – | –
5 | O=C1C2=C(c3ccccc31)C(c1ccc(Cl)cc1)N1C(=O)CCSC1=N2 (stereo not given) | – | > 100 µM | – | > 100 µM | – | > 100 µM | – | > 100 µM | – | > 100 µM | – | > 100 µM | – | > 100 µM | – | > 100 µM | – | > 100 µM | – | –
6 | O=C(Cc1ccccc1)NN1C(=O)C(Cl)C1c1cccc(O)c1 (stereo not given) | – | – | – | 8.44 µM | – | 31.4 µM | – | 35.2 µM | – | – | – | 80.5 µM | – | 40.4 µM | – | 74.6 µM | – | 59.5 µM | 15.4 µM | –
7 | O=C1C2CC(Cl)C(SSC3CC4C(=O)N(SC(Cl)(Cl)C(Cl)Cl)C(=O)C4CC3Cl)CC2C(=O)N1SC(Cl)(Cl)C(Cl)Cl (stereo not given) | – | 7.73 µM | – | – | – | 2.88 µM | – | 5.65 µM | – | 6.89 µM | – | 8.53 µM | – | 17.1 µM | – | 6.12 µM | – | 3.65 µM | 1.21 µM | –
8 | COc1ccc(/C=C2/CCCC/C2=N/O)cc1 | – | > 100 µM | – | > 100 µM | – | > 100 µM | – | > 100 µM | – | > 100 µM | – | > 100 µM | – | > 100 µM | – | > 100 µM | – | > 100 µM | – | –
9 | COC(=O)Nc1nc2ccc(C(=O)c3ccc[nH]3)cc2[nH]1 | – | > 100 µM | – | 12.7 µM | – | > 26.9 µM | – | > 100 µM | – | 42.3 µM | – | > 63 µM | – | > 100 µM | – | 1.69 µM | – | > 100 µM | – | –
10 | Cc1ccc(S(=O)(=O)N2CCCSCCSCCCSCC2)cc1 | – | – | – | > 100 µM | – | > 100 µM | – | > 100 µM | – | > 100 µM | – | > 100 µM | – | > 100 µM | – | > 100 µM | – | – | > 100 µM | –
